We go through 19 compounds from patent US20250296939A1, “BENZOTHIOPHENE COMPOUND” (Kyoto Pharmaceutical Industries, Ltd., priority 2022, published 2025).

Each structure is given as a SMILES string. Some results are limits rather than exact numbers.

Experiment [1] has as its target GST-fused human Keap1 (amino acid residues: 325-642) protein (Homo sapiens (Human), UniProt Q14145). Put plainly: FP assay (in vitro): inhibition of binding between Nrf2 and Keap1 by fluorescence polarization. Conditions: 20 nM GST-fused human Keap1, 10 nM FITC-labeled Nrf2 peptide, 2 hr at room temperature.
Experiment [2] relates to NQO1 activity in Hepa1c1c7 cells. Put plainly: NAD(P)H: quinone oxidoreductase-1 (NQO1) enzyme induction assay (in vitro). The format is cell-based, mouse. The following applies: Mus musculus, Hepa-1c1c7, NQO1 activity upon addition of 400 nM of test compound, about 48 hr, ratio from the base without the compound. An outline of the steps:
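Mouse Hepa1c1c7 hepatoma cells were treated with 400 nM compound for about 48 h, then lysed with digitonin/EDTA. NQO1 activity was measured as menadione-mediated MTT reduction with a G6P/G6PDH NADPH-regenerating system, stopped with dicoumarol, and read at A610. Values are the activity ratio versus untreated base wells.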

Chain of GST-fused human Keap1 (amino acid residues: 325-642) protein (Q14145 325-624 limits assumed): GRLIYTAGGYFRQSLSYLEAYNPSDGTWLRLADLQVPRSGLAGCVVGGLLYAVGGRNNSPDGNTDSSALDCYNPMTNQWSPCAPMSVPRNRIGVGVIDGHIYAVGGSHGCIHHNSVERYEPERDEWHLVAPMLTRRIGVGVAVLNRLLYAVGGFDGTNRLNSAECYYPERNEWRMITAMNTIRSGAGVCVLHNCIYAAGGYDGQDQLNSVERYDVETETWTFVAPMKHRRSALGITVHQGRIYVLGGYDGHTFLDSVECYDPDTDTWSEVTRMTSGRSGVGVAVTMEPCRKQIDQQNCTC

Broadly, the IC50 is the point on the concentration scale where inhibition reaches its midpoint. Lower therefore signals greater potency in that assay. One may read the fold induction as the ratio of treated to control signal. In turn, `Cc1c([C@@H](CC(=O)O)c2cc(CN3Cc4nc(O)ccc4O[C@H](C(F)(F)F)C3)c3sccc3c2)ccc2c1nnn2C` [Example 38, (3S)-3-(1,4-Dimethyl-1H-benzotriazol-5-yl)-3-(7-{[(2S)-7-hydroxy-2-(trifluoromethyl)-2,3-dihydropyrido[2,3-f][1,4]oxazepin-4(5H)-yl]methyl}-1-benzothiophen-5-yl)propanoic acid] showed an IC50 in experiment [1] of at most 0.01 µM. Besides, the fold induction at 0.4 µM in experiment [2] was above 5.

`Cc1c([C@H](CC(=O)O)c2cc(CN3Cc4nc(O)ccc4O[C@@H](C(F)(F)F)C3)c3sccc3c2)ccc2c1nnn2C` [Example 39, (3R)-3-(1,4-Dimethyl-1H-benzotriazol-5-yl)-3-(7-{[(2R)-7-hydroxy-2-(trifluoromethyl)-2,3-dihydropyrido[2,3-f][1,4]oxazepin-4(5H)-yl]methyl}-1-benzothiophen-5-yl)propanoic acid]: the IC50 in experiment [1] lay within 0.3 to 3 µM. Moreover, the fold induction at 0.4 µM in experiment [2] was 1.5 to 3.

Regarding `Cc1c([C@@H](CC(=O)O)c2cc(CN3Cc4nc(O)ccc4O[C@@H](C(F)(F)F)C3)c3sccc3c2)ccc2c1nnn2C` [Example 40, (3S)-3-(1,4-Dimethyl-1H-benzotriazol-5-yl)-3-(7-{[(2R)-7-hydroxy-2-(trifluoromethyl)-2,3-dihydropyrido[2,3-f][1,4]oxazepin-4(5H)-yl]methyl}-1-benzothiophen-5-yl)propanoic acid], in experiment [1], the IC50 lay within 0.3 to 3 µM. In addition, the fold induction at 0.4 µM in experiment [2] is 1.5 to 3.

As to `CC[C@@H]1CN(Cc2cc([C@@H](CC(=O)O)c3cc(OC(F)(F)F)c4c(nnn4C)c3C)cc3ccsc23)Cc2nc(O)ccc2O1` [Example 41, (3R)-3-[1,4-Dimethyl-7-(trifluoromethoxy)-1H-benzotriazol-5-yl]-3-(7-{[(2R)-2-ethyl-7-hydroxy-2,3-dihydropyrido[2,3-f][1,4]oxazepin-4(5H)-yl]methyl}-1-benzothiophen-5-yl)propanoic acid], the half-maximal inhibitory concentration (IC50) in experiment [1] was at most 0.01 µM. In addition, the fold induction at 0.4 µM in experiment [2] is above 5.

`CC[C@@H]1CN(Cc2cc([C@H](CC(=O)O)c3cc(OC(F)(F)F)c4c(nnn4C)c3C)cc3ccsc23)Cc2nc(O)ccc2O1` [Example 42, (3S)-3-[1,4-Dimethyl-7-(trifluoromethoxy)-1H-benzotriazol-5-yl]-3-(7-{[(2R)-2-ethyl-7-hydroxy-2,3-dihydropyrido[2,3-f][1,4]oxazepin-4(5H)-yl]methyl}-1-benzothiophen-5-yl)propanoic acid] returned an IC50 in experiment [1] of at most 0.01 µM. The fold induction at 0.4 µM in experiment [2] is above 5.

Regarding `CC[C@@H]1CN(Cc2cc([C@@H](CC(=O)O)c3cc(OC(F)F)c4c(nnn4C)c3C)cc3ccsc23)Cc2nc(O)ccc2O1` [Example 43, (3R)-3-[7-(Difluoromethoxy)-1,4-dimethyl-1H-benzotriazol-5-yl]-3-(7-{[(2R)-2-ethyl-7-hydroxy-2,3-dihydropyrido[2,3-f][1,4]oxazepin-4(5H)-yl]methyl}-1-benzothiophen-5-yl)propanoic acid], in experiment [1], the IC50 was 0.01 to 0.03 µM. Also, the fold induction at 0.4 µM in experiment [2] was above 5.

Regarding `CC[C@@H]1CN(Cc2cc([C@H](CC(=O)O)c3cc(OC(F)F)c4c(nnn4C)c3C)cc3ccsc23)Cc2nc(O)ccc2O1` [Example 44, (3S)-3-[7-(Difluoromethoxy)-1,4-dimethyl-1H-benzotriazol-5-yl]-3-(7-{[(2R)-2-ethyl-7-hydroxy-2,3-dihydropyrido[2,3-f][1,4]oxazepin-4(5H)-yl]methyl}-1-benzothiophen-5-yl)propanoic acid], in experiment [1], the IC50 was at most 0.01 µM. For the same compound, in experiment [2], the fold induction at 0.4 µM was above 5.

`Cc1c([C@H](CC(=O)O)c2cc(CN3Cc4nc(O)ccc4O[C@H](C(C)(F)F)C3)c3sccc3c2)ccc2c1nnn2C` [Example 45, (3R)-3-(7-{[(2S)-2-(1,1-Difluoroethyl)-7-hydroxy-2,3-dihydropyrido[2,3-f][1,4]oxazepin-4(5H)-yl]methyl}-1-benzothiophen-5-yl)-3-(1,4-dimethyl-1H-benzotriazol-5-yl)propanoic acid] came in with an IC50 in experiment [1] of 0.01 to 0.03 µM. Also, the fold induction at 0.4 µM in experiment [2] was above 5.

`Cc1c([C@H](CC(=O)O)c2cc(CN3Cc4nc(O)ccc4O[C@H](C(F)(F)F)C3)c3sccc3c2)cnc2c1nnn2C` [Example 46, (3R)-3-(3,7-Dimethyl-3H-[1,2,3]triazolo[4,5-b]pyridin-6-yl)-3-(7-{[(2S)-7-hydroxy-2-(trifluoromethyl)-2,3-dihydropyrido[2,3-f][1,4]oxazepin-4(5H)-yl]methyl}-1-benzothiophen-5-yl)propanoic acid] displayed an IC50 in experiment [1] of at most 0.01 µM. In experiment [2], the fold induction at 0.4 µM fell in the range of 3 to 5.

For the compound `Cc1c([C@@H](c2cc(CN3Cc4nc(O)ccc4OC4(CC4)C3)c3sccc3c2)C(C)(C)C(=O)O)ccc2c1nnn2C` [Example 47, (3R)-3-(1,4-Dimethyl-1H-benzotriazol-5-yl)-3-{7-[(7′-hydroxy-3′H-spiro[cyclopropane-1,2′-pyrido[2,3-f][1,4]oxazepin]-4′ (5′H)-yl)methyl]-1-benzothiophen-5-yl}-2,2-dimethylpropanoic acid], in experiment [1], the IC50 was in the range of 0.3 to 3 µM. Also, the fold induction at 0.4 µM in experiment [2] was in the range of 1.5 to 3.

`CC[C@@H]1CN(Cc2cc([C@@H](c3cnc4c(nnn4C)c3C)C(C)(C)C(=O)O)cc3ccsc23)Cc2nc(O)ccc2O1` [Example 48, (3S)-3-(3,7-Dimethyl-3H-[1,2,3]triazolo[4,5-b]pyridin-6-yl)-3-(7-{[(2R)-2-ethyl-7-hydroxy-2,3-dihydropyrido[2,3-f][1,4]oxazepin-4(5H)-yl]methyl}-1-benzothiophen-5-yl)-2,2-dimethylpropanoic acid] yielded an IC50 in experiment [1] of 0.01 to 0.03 µM. Besides, the fold induction at 0.4 µM in experiment [2] is above 5.

Compound `CC[C@@H]1CN(Cc2cc([C@H](c3cnc4c(nnn4C)c3C)C(C)(C)C(=O)O)cc3ccsc23)Cc2nc(O)ccc2O1` [Example 49, (3R)-3-(3,7-Dimethyl-3H-[1,2,3]triazolo[4,5-b]pyridin-6-yl)-3-(7-{[(2R)-2-ethyl-7-hydroxy-2,3-dihydropyrido[2,3-f][1,4]oxazepin-4(5H)-yl]methyl}-1-benzothiophen-5-yl)-2,2-dimethylpropanoic acid] displayed an IC50 in experiment [1] of 0.3 to 3 µM. In addition, the fold induction at 0.4 µM in experiment [2] was 3 to 5.

In experiment [1], `Cc1c([C@H](c2cc(CN3Cc4nc(O)ccc4OC4(CC4)C3)c3sccc3c2)C(C)(C)C(=O)O)cnc2c1nnn2C` [Example 50, (3S)-3-(3,7-Dimethyl-3H-[1,2,3]triazolo[4,5-b]pyridin-6-yl)-3-{7-[(7′-hydroxy-3′H-spiro[cyclopropane-1,2′-pyrido[2,3-f][1,4]oxazepin]-4′(5′H)-yl)methyl]-1-benzothiophen-5-yl}-2,2-dimethylpropanoic acid] came in with an IC50 of 0.01 to 0.03 µM. Besides, the fold induction at 0.4 µM in experiment [2] is above 5.

With `Cc1c([C@H](c2cc(CN3Cc4nc(O)ccc4O[C@H](C4CC4)C3)c3sccc3c2)C(C)(C)C(=O)O)cnc2c1nnn2C` [Example 51, (3S)-3-(7-{[(2R)-2-Cyclopropyl-7-hydroxy-2,3-dihydropyrido[2,3-f][1,4]oxazepin-4(5H)-yl]methyl}-1-benzothiophen-5-yl)-3-(3,7-dimethyl-3H-[1,2,3]triazolo[4,5-b]pyridin-6-yl)-2,2-dimethylpropanoic acid], the half-inhibitory concentration (IC50) in experiment [1] lay in the range of 0.01 to 0.03 µM. For the same compound, in experiment [2], the fold induction at 0.4 µM was above 5.

In experiment [1], `Cc1c(C(CC(=O)O)c2cc(CN3Cc4nc(O)ccc4OC4(CC4)C3)c3sccc3c2)ccn2c(C)nnc12` (centres unmarked) [Example 54, 3-(3,8-Dimethyl[1,2,4]triazolo[4,3-a]pyridin-7-yl)-3-{7-[(7′-hydroxy-3′H-spiro[cyclopropane-1,2′-pyrido[2,3-f][1,4]oxazepin]-4′(5′H)-yl)methyl]-1-benzothiophen-5-yl}propanoic acid] had a concentration for half-maximal inhibition (IC50) of 0.01 to 0.03 µM. Moreover, in experiment [2], the fold induction at 0.4 µM is 3 to 5.

`CC[C@@H]1CN(Cc2cc([C@@H](CC(=O)O)c3ccc4c(nnn4C)c3C)cc3ccsc23)Cc2nc(N)ccc2O1` [Example 55, (3R)-3-(7-{[(2R)-7-Amino-2-ethyl-2,3-dihydropyrido[2,3-f][1,4]oxazepin-4(5H)-yl]methyl}-1-benzothiophen-5-yl)-3-(1,4-dimethyl-1H-benzotriazol-5-yl)propanoic acid] showed an IC50 in experiment [1] of at most 0.01 µM. Besides, the fold induction at 0.4 µM in experiment [2] is above 5.

`CC[C@@H]1CN(Cc2cc([C@H](CC(=O)O)c3ccc4c(nnn4C)c3C)cc3ccsc23)Cc2nc(N)ccc2O1` [Example 56, (3S)-3-(7-{[(2R)-7-Amino-2-ethyl-2,3-dihydropyrido[2,3-f][1,4]oxazepin-4(5H)-yl]methyl}-1-benzothiophen-5-yl)-3-(1,4-dimethyl-1H-benzotriazol-5-yl)propanoic acid] came in with an IC50 in experiment [1] of at most 0.01 µM. Moreover, in experiment [2], the fold induction at 0.4 µM is above 5.

Regarding `CC[C@@H]1CN(Cc2cc(C(CC(=O)O)c3ccc4c(nnn4C)c3C)cc3ccsc23)Cc2nc(F)ccc2O1` (stereo partly drawn) [Example 57, 3-(1,4-Dimethyl-1H-benzotriazol-5-yl)-3-(7-{[(2R)-2-ethyl-7-fluoro-2,3-dihydropyrido[2,3-f][1,4]oxazepin-4(5H)-yl]methyl}-1-benzothiophen-5-yl)propanoic acid], in experiment [1], the IC50 lay in the range of 0.01 to 0.03 µM. The fold induction at 0.4 µM in experiment [2] was above 5.

`CC[C@@H]1CN(Cc2cc(C(CC(=O)O)c3ccc4c(nnn4CCCS(C)(=O)=O)c3C)cc3ccsc23)Cc2nc(O)ccc2O1` (stereo partly drawn) [Example 62, 3-(7-{[(2R)-2-Ethyl-7-hydroxy-2,3-dihydropyrido[2,3-f][1,4]oxazepin-4(5H)-yl]methyl}-1-benzothiophen-5-yl)-3-{4-methyl-1-[3-(methylsulfonyl)propyl]-1H-benzotriazol-5-yl}propanoic acid] registered an IC50 in experiment [1] of 0.01 to 0.03 µM. In addition, the fold induction at 0.4 µM in experiment [2] was above 5.
